Measured values published in ChEMBL document CHEMBL3232784, “Fluorescent analog of OSW-1 and its cellular localization” (Bioorg Med Chem Lett, 2014).
Calls of active or inactive are those of the source. The calls are words filed in the database; no cut-off is given here.

Experiments:
HeLa [1] = assay: Cytotoxicity against human HeLa cells after 24 hrs by XTT assay; format: functional, cell-based
[2] = Cellular uptake in perinuclear region of cytoplasm in human HeLa cells at 1 uM after 1 hr by fluorescence microscopic analysis; format: ADME, cell-based
[3] = Cytotoxicity against human NCI60 cells; format: functional, cell-based
HeLa [4] = assay: Cellular uptake in human HeLa cells at 0.5 uM at 37 degC after 30 mins by fluorescence microscopic analysis; format: ADME, cell-based; settings: 0.5 h
HeLa [5] = assay: Cellular uptake in human HeLa cell lysate at 1 uM after 1 hr by fluorescence spectroscopic analysis; format: ADME, cell-based
[6] = Cellular uptake in perinuclear region of cytoplasm in human HeLa cells at 0.13 to 1 uM after 1 hr by fluorescence microscopic analysis; format: ADME, cell-based
[7] = Cellular uptake in perinuclear region of cytoplasm in human HeLa cells at 0.5 uM after 10 mins by fluorescence microscopic analysis; format: ADME, cell-based
HeLa [8] = assay: Cellular uptake in human HeLa cells at 0.5 uM at 4 degC after 30 mins by fluorescence microscopic analysis; format: ADME, cell-based; settings: 0.5 h
[9] = Cellular uptake in human HeLa cell golgi complex at 1 uM by BODIPY TR-ceramide-based fluorescence microscopic analysis; format: ADME
[10] = Cellular uptake in human HeLa cell endoplasmic reticulum at 1 uM by […] staining-based fluorescence microscopic analysis; format: ADME
[11] = Cellular uptake in human HeLa cell mitochondria at 1 uM by […]-based fluorescence microscopic analysis; format: ADME

SMILES	inhibition (HeLa [1])	Drug uptake [2]	IC50 [3]	IC50 (HeLa [1])	Drug uptake (HeLa [4])	Drug uptake (HeLa [5])	Drug uptake [6]	Drug uptake [7]	Drug uptake (HeLa [8])	Drug uptake [9]	Drug uptake [10]	Drug uptake [11]
COC(=O)CN(C)c1ccc(S(=O)(=O)N(C)C)c2nonc12	inactive	Not Active	–	–	–	–	–	–	–	–	–	–
COc1ccc(C(=O)O[C@H]2[C@H](O[C@@H]3[C@@H](OC(C)=O)[C@H](O[C@H]4C[C@H]5[C@@H]6CC=C7C[C@@H](O)CC[C@]7(C)[C@H]6CC[C@]5(C)[C@@]4(O)[C@H](C)C(=O)CCC(C)C)OC[C@@H]3O)OC[C@@H](O)[C@@H]2O)cc1	–	–	0.78 nM	2.6 nM	–	–	–	–	–	–	–	–
COc1ccc(C(=O)O[C@H]2[C@H](O[C@@H]3[C@@H](OC(C)=O)[C@H](O[C@H]4C[C@H]5[C@@H]6CC=C7C[C@@H](O)CC[C@]7(C)[C@H]6CC[C@]5(C)[C@@]4(O)[C@H](C)C(=O)CCC(C)C)OC[C@@H]3O)OC[C@@H](O)[C@@H]2OC(=O)CN(C)c2ccc(S(=O)(=O)N(C)C)c3nonc23)cc1	–	–	–	5 nM	Active	Active	Active	Active	Not Active	Active	Active	Not Active
